Laboratory results from patent publication US20050154010A1 (The Regents of University of California, priority 2002, published 2005).
Counter-ions that a name gives are not always drawn. Blank lines part the entries; values can stand above or below the molecule they belong to.

What was measured:
[1] = tested on: Chronic lymphocytic leukemia cells (CLL); test: Viable CLL cells after 48 hours exposure, dye exclusion and flow cytometric analysis; type: cell-based, human
Procedure: (§1) After 48 hours exposure, the number of viable cells was determined by dye exclusion and flow cytometric analysis.

[2] = tested on: control normal lymphocytes (PBL); test: Viable normal lymphocytes after 48 hours exposure, dye exclusion and flow cytometric analysis; type: cell-based, human; conditions: 10 μM
Procedure: as §1

CLL cells = conditions: Lagneaux et al. 2001; not feasible in vivo due to toxicity; cited from earlier work
[3] = tested on: peripheral blood T lymphocytes; conditions: Meng et al. 1997; cited from earlier work
[4] = cited from earlier work
[5] = cited from earlier work; remark: listed apart in the source
[6] = tested on: 60 human tumor cell lines; test: cells; type: cell-based
From the text: The operation of this screen utilizes 60 different human tumor cell lines, representing leukemia, melanoma, and cancers of the lung, colon, brain, ovary, breast, prostate, and kidney. The aim is to prioritize for further evaluation, synthetic compounds or natural product samples showing selective growth inhibition or cell killing of particular tumor cell lines. This screen is unique in that the complexity of a 60-cell line dose response produced by a given compound results in a biological response pattern which can be utilized in pattern recognition algorithms. Using these algorithms, it is possible to assign a putative mechanism of action to a test compound, or to determine that the response pattern is unique and not similar to that of any of the standard prototype compounds included in the NCI database (see DTP Overview tab). In addition, following characterization of various cellular molecular targets in the 60 cell lines, it may be possible to select compounds most likely to interact with a specific molecular target.
(§2) The human tumor cell lines of the cancer screening panel are grown in RPMI 1640 medium containing 5% fetal bovine serum and 2 mM L-glutamine. For a typical screening experiment, cells are inoculated into 96 well microtiter plates in 100 μL at plating densities ranging from 5,000 to 40,000 cells/well depending on the doubling time of individual cell lines. After cell inoculation, the microtiter plates are incubated at 37° C., 5% CO2, 95% air and 100% relative humidity for 24 h prior to addition of experimental drugs. After 24 h, two plates of each cell line are fixed iin situ with TCA, to represent a measurement of the cell population for each cell line at the time of drug addition (Tz).
Experimental drugs are solubilized in dimethyl sulfoxide at 400-fold the desired final maximum test concentration and stored frozen prior to use. […]
Cells are fixed in situ by the gentle addition of 50 μl of cold 50% (w/v) TCA (final concentration, 10% TCA) and incubated for 60 minutes at 4° C. […] Bound stainis subsequently solubilized with 10 mM trizma base, and the absorbance is read on an automated plate reader at a wavelength of 515 nm. […] Using the seven absorbance measurements [time zero, (Tz), control growth, (C), and test growth in the presence of drug at the five concentration levels ( ? )], tile percentage growth is calculated at each of the drug concentrations levels. Percentage growth inhibition is calculated as: [(Ti−Tz)/(C−Tz)]×100 for concentrations for which Ti>/=Tz [(Ti−Tz)/Tz]×100 for concentrations for which Ti<Tz
Three dose-response parameters are calculated for each experimental agent. […]

[7] = in vivo; cited from earlier work
NCI-H460 = test: NCI In Vitro Cell Line Screening; type: cell-based; conditions: Homo sapiens; NCI-H460, Non-Small Cell Lung Cancer
Procedure: as §2
(§3) Experimental drugs are solubilized in dimethyl sulfoxide at 400-fold the desired final maximum test concentration and stored frozen prior to use. At the time of drug addition, an aliquot of frozen concentrate is thawed and diluted to twice the desired final maximum test concentration with complete medium containing 50 μg/ml gentamicin. Additional four, 10-fold or ½ log serial dilutions are made to provide a total of five drug concentrations plus control. Aliquots of 100 μl of these different drug dilutions are added to the appropriate microtiter wells already containing 100 μl of medium, resulting in the required final drug concentrations. Following drug addition, the plates are incubated for an additional 48 h at 37° C., 5% CO2, 95% air, and 100% relative humidity. For adherent cells, the assay is terminated by the addition of cold TCA.
(§4) Cells are fixed in situ by the gentle addition of 50 μl of cold 50% (w/v) TCA (final concentration, 10% TCA) and incubated for 60 minutes at 4° C. The supernatant is discarded, and the plates are washed five times with tap water and air-dried. Sulforhodamine B (SRB) solution (100 μl) at 0.4% (w/v) in 1% acetic acid is added to each well, and plates are incubated for 10 minutes at room temperature. After staining, unbound dye is removed by washing five times with 1% acetic acid and the plates are air dried. Bound stainis subsequently solubilized with 10 mM trizma base, and the absorbance is read on an automated plate reader at a wavelength of 515 nm. For suspension cells, the methodology is the same except that the assay is terminated by fixing settled cells at the bottom of the wells by gently adding 50 μl of 80% TCA (final concentration, 16% TCA). Using the seven absorbance measurements [time zero, (Tz), control growth, (C), and test growth in the presence of drug at the five concentration levels ( ? )], tile percentage growth is calculated at each of the drug concentrations levels. Percentage growth inhibition is calculated as: [(Ti−Tz)/(C−Tz)]×100 for concentrations for which Ti>/=Tz [(Ti−Tz)/Tz]×100 for concentrations for which Ti<Tz
(§5) Three dose-response parameters are calculated for each experimental agent. Growth inhibition of 50% (GI50) is calculated from [(Ti−Tz)/(C−Tz)]×100=50, which is the drug concentration resulting in a 50% reduction in the net protein increase (as measured by SRB staining) in control cells during the drug incubation. The drug concentration resulting in total growth inhibition (TGI) is calculated from Ti=Tz. The LC50 (concentration of drug resulting in a 50% reduction in the measured protein at the end of the drug treatment as compared to that at the beginning) indicating a net loss of cells following treatment is calculated from [(Ti−Tz)/Tz]×100=−50. Values are calculated for each of these three parameters if the level of activity is reached; however, if the effect is not reached or is exceeded, the value for that parameter is expressed as greater or less than the maximum or minimum concentration tested.

SK-MEL-5 = test: NCI In Vitro Cell Line Screening; type: cell-based; conditions: Homo sapiens; SK-MEL-5, Melanoma
Procedure: as §2, §3, §4, §5

CAK-1 = test: NCI In Vitro Cell Line Screening; type: cell-based; conditions: Homo sapiens; CAK-1, Renal Cell Carcinoma
Procedure: as §2, §3, §4, §5

NCI-H23 = test: NCI In Vitro Cell Line Screening; type: cell-based; conditions: Homo sapiens; NCI-H23, Non-Small Cell Lung Cancer
Procedure: as §2, §3, §4, §5

LOX IMVI = test: NCI In Vitro Cell Line Screening; type: cell-based; conditions: Homo sapiens, Melanoma
Procedure: as §2, §3, §4, §5

RXF 393 = test: NCI In Vitro Cell Line Screening; type: cell-based; conditions: Homo sapiens; RXF 393, Renal Cell Carcinoma
Procedure: as §2, §3, §4, §5

HCC-2998 = test: NCI In Vitro Cell Line Screening; type: cell-based; conditions: Homo sapiens; HCC-2998, Colon Cancer
Procedure: as §2, §3, §4, §5

OVCAR-4 = test: NCI In Vitro Cell Line Screening; type: cell-based; conditions: Homo sapiens; OVCAR-4, Ovarian Carcinoma
Procedure: as §2, §3, §4, §5

[8] = in vivo; cited from earlier work; remark: listed apart in the source
MCF7 = test: MTT assay, cell viability; type: cell-based; conditions: MCF7, Breast, 72 hours exposure
Procedure: (§6) After 72 hours exposure, the viability of the cells was determined by the rate of conversion of the formazan salt measuring the optical density (OD) at 570 nm (MTT assay).

RAJI = test: MTT assay, cell viability; type: cell-based; conditions: Lymphoma, 72 hours exposure
Procedure: as §6

MDA-231 = test: MTT assay, cell viability; type: cell-based; conditions: MDA-231, Breast, 72 hours exposure
Procedure: as §6

SU-DHL1 = test: MTT assay, cell viability; type: cell-based; conditions: SU-DHL1, Lymphoma, 72 hours exposure
Procedure: as §6

SU-DHL9 = test: MTT assay, cell viability; type: cell-based; conditions: SU-DHL9, Lymphoma, 72 hours exposure
Procedure: as §6

LNCap = test: MTT assay, cell viability; type: cell-based; conditions: Prostate, 72 hours exposure
Procedure: as §6

RPMI8226 = test: MTT assay, cell viability; type: cell-based; conditions: RPMI8226, Myeloma, 72 hours exposure
Procedure: as §6

U266 = test: MTT assay, cell viability; type: cell-based; conditions: U266, Myeloma, 72 hours exposure
Procedure: as §6

HCT-116 = test: MTT assay, cell viability; type: cell-based; conditions: HCT-116, Colon, 72 hours exposure
Procedure: as §6

10C9 = test: MTT assay, cell viability; type: cell-based; conditions: 10C9, Lymphoma, 72 hours exposure
Procedure: as §6

[9] = tested on: Chronic lymphocytic leukemia cells (CLL); test: Flow cytometry (propidium iodide, DiOC6) of CLL cells after 24 hours exposure; type: cell-based, human; conditions: 10 μM, FIG. 2
Procedure: After 24 hours exposure, the percentage of living (lower-right corner), apoptotic (lower-left corner) and dead (higher-left corner) were analyzed by flow cytometry using propidium iodide (y axis) and DiOC6 (x axis). The results, showing the activity of the (+) and (−) enantiomers against CLL cells, are seen in FIG. 2.

Molecule: O[C@H](c1cc(C(F)(F)F)nc2c(C(F)(F)F)cccc12)[C@@H]1CCCCN1 (relative stereo) [Mefloquine, (R*,S*)-(±)-alpha-2-piperidinyl-2,8-bis(trifluoromethyl)-4-quinolinemethanol]
- apoptosis induction in CLL cells ([1]; 10 μM, 48 hours exposure): inducing potent apoptosis
- apoptosis induction in normal lymphocytes [2]: not against normal lymphocytes

Molecule: CCN(CCO)CCCC(C)Nc1ccnc2cc(Cl)ccc12 (centres unmarked) [hydroxychloroquine]
- concentration active against CLL cells (CLL cells): ≥ 30 µg/mL
- apoptosis induction in peripheral blood T lymphocytes [3]: induce apoptosis

Molecule: OC(c1cc(C(F)(F)F)nc2c(C(F)(F)F)cccc12)C1CCCCN1 (centres unmarked) [Mefloquine hydrochloride]
- solubility in ethanol ([4]; ethanol): soluble
- solubility in water ([4]; water): slightly soluble

Molecule: 2,8-bis-trifluorornethyl-4-quinoline carboxylic acid [Metabolite]
- level accumulated in the plasma ([5]; plasma): up to 10 μM
- Mean (SD) trough concentration, Plasma ([5]; plasma, ten healthy volunteers, 250 mg once weekly for 16 weeks, steady state at week 16): 9.80 (5.07) μmol · 1^−1
- Mean (SD) trough concentration, Serum ([5]; serum, ten healthy volunteers, 250 mg once weekly for 16 weeks, steady state at week 16): 9.44 (5.00) μmol · 1^−1
- Mean (SD) trough concentration, Whole Blood ([5]; whole blood, ten healthy volunteers, 250 mg once weekly for 16 weeks, steady state at week 16): 4.89 (2.58) μmol · 1^−1

Molecule: O[C@H](c1cc(C(F)(F)F)nc2c(C(F)(F)F)cccc12)[C@@H]1CCCCN1 (racemic) [Mefloquine, (R*,S*)-(±)-alpha-2-piperidinyl-2,8-bis(trifluoromethyl)-4-quinolinemethanol]
- concentration effective against CLL cells [1]: ≤ 10 µM
- CC50 ([6]; Homo sapiens, 48 h, read-out: Mean LC50): 87 µM
- GI50 ([6]; Homo sapiens, mean over 60 tumor cell lines, 48 h, SRB): 4 µM
- Mean TGI50 ([6]; mean over 60 tumor cell lines, 48 h, SRB): 26 µM
- number of the 60 cell lines against which active ([6]; of the 60 cell lines in the screen): 58
- bioavailability [7]: 80%
- GI50 (NCI-H460): 2100 nM
- GI50 (SK-MEL-5): 2000 nM
- GI50 (CAK-1): 100 nM
- GI50 (NCI-H23): 2800 nM
- GI50 (LOX IMVI): 1300 nM
- GI50 (RXF 393): 1700 nM
- GI50 (HCC-2998): 2000 nM
- GI50 (OVCAR-4): 1900 nM

- IC50 (MCF7): 20 µM
- IC50 (RAJI): 30 µM
- IC50 (SU-DHL1): 20 µM
- IC50 (SU-DHL9): 15 µM
- IC50 (LNCap): 25 µM
- IC50 (RPMI8226): 15 µM
- IC50 (U266): 25 µM
- IC50 (HCT-116): 12 µM
Molecule: OC(c1cc(C(F)(F)F)nc2c(C(F)(F)F)cccc12)C1CCCCN1 (single isomer, unassigned; (-)) [(−)Mefloquine]
- passage of the blood brain barrier / accumulation in the brain [8]: does not seem to pass the blood brain barrier
- IC50 (MDA-231): 40 µM
- IC50 (10C9): 20 µM
- activity against CLL cells [9]: activity

Molecule: O[C@H](c1cc(C(F)(F)F)nc2c(C(F)(F)F)cccc12)[C@@H]1CCCCN1 [(+)-mefloquine]
- passage of the blood brain barrier / accumulation in the brain [8]: accumulate in the brain
- activity against CLL cells [9]: activity
